Results as given in patent publication US12528790B2, “Amide derivative having antiviral activity” (Shionogi & Co., Ltd., priority 2020, dated 2026).

test system: RSV A2 strain; experiment: In vitro CPE (CytoPathic Effect) inhibition effect evaluation test, RSV type A; type: cell-based; conditions: human respiratory syncytial virus; inhibitory effect against RSV type A (RSV A2 strain), HEp-2 cells, CPE inhibition; read-out: EC50
In short: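 EC50 is the concentration giving 50% inhibition of virus-induced cytopathic effect, fitted by nonlinear regression from CellTiter-Glo 2.0 viability. Compounds in 3-fold series were co-incubated at 37 °C with HEp-2 cells and RSV: A2 strain for 4 days, B (Wash/18537) for 5 days; uninfected wells served as control.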

Row | Structure (SMILES) | EC50 [µM]
1 | O=C(NC1(C(=O)O)C2CC3CC(C2)CC1C3)c1cnc(-c2cn(C3CCC(F)(F)CC3)c3cc(OCCNc4ncccn4)ccc23)nc1C(F)(F)F (stereo not shown) [Compound I-372] | < 0.01
2 | CC1CN(c2ncc(F)cn2)CCC1Oc1ccc2c(-c3ncc(C(=O)NC4(C(=O)O)C5CC6CC(C5)CC4C6)c(C(F)(F)F)n3)cn(C3CCC(F)(F)CC3)c2c1 (stereo not shown) [Compound I-376] | < 0.01
3 | O=C(NC1(C(=O)O)C2CC3CC(C2)CC1C3)c1cnc(-c2cn(C3CCC(F)(F)CC3)c3cc(O[C@H]4CCN(c5ncc(F)cn5)C4)ccc23)nc1C(F)(F)F (stereo partly shown) [Compound I-377] | < 0.01
4 | COC1CC(n2cc(-c3ncc(C(=O)NC4(C(=O)O)C5CC6CC(C5)CC4C6)c(C(F)(F)F)n3)c3ccc(OC4CCN(c5ncc(F)cn5)CC4)cc32)C1 (stereo not shown) [Compound I-378] | < 0.01
5 | O=C(NC1(C(=O)O)C2CC3CC(C2)CC1C3)c1cnc(N2CC3(CCOCC3)c3cc(OCC(F)(F)F)ccc32)nc1C(F)(F)F (stereo not shown) [Compound I-381] | < 0.01
6 | O=C(NC1(C(=O)O)C2CC3CC(C2)CC1C3)c1cnc(N2CC3(CCCCC3)c3cc(OC4CCN(c5ncc(F)cn5)CC4)ccc32)nc1C(F)(F)F (stereo not shown) [Compound I-383] | < 0.01
7 | O=C(NC1(C(=O)O)C2CC3CC(C2)CC1C3)c1cnc(-c2cn(C3CCC(F)(F)CC3)c3cc(OC4CN(c5ncc(F)cn5)C4)ccc23)nc1C(F)(F)F (stereo not shown) [Compound I-387] | < 0.01
8 | O=C(NC1(C(=O)O)C2CC3CC(C2)CC1C3)c1ccc(-c2cn(-c3ccc(F)cc3)c3cc(OC4CCN(c5ncccn5)CC4)ccc23)nc1C(F)(F)F (stereo not shown) [Compound I-389] | < 0.01
9 | O=C(NC1(C(=O)O)C2CC3CC(C2)CC1C3)c1ccc(-c2cn(-c3cccc(F)c3)c3cc(OC4CCN(c5ncccn5)CC4)ccc23)nc1C(F)(F)F (stereo not shown) [Compound I-390] | < 0.01
10 | O=C(NC1(C(=O)O)C2CC3CC(C2)CC1C3)c1cnc(N2CC3(CCCCC3)c3cc(OC4CCN(c5ncccn5)CC4)c(F)cc32)nc1C(F)(F)F (stereo not shown) [Compound I-394] | < 0.01
11 | O=C(NC1(C(=O)O)C2CC3CC(C2)CC1C3)c1cnc(-c2cn(C3CCC(F)(F)CC3)c3cc(C(=O)N4CCC(N5CC(F)(F)C5)CC4)ccc23)nc1C(F)(F)F (stereo not shown) [Compound I-416] | < 0.01
12 | O=C(NC1(C(=O)O)C2CC3CC(C2)CC1C3)c1cnc(-c2cn(C3CCC(F)(F)CC3)c3cc(CN4CCC(N5CC(F)(F)C5)CC4)ccc23)nc1C(F)(F)F (stereo not shown) [Compound I-417] | < 0.01
13 | O=C(NC1(C(=O)O)C2CC3CC(C2)CC1C3)c1cnc(-c2cn(C3CCC(F)(F)CC3)c3cc(OCCN4CC(F)(F)C4)ccc23)nc1C(F)(F)F (stereo not shown) [Compound I-426] | < 0.01
14 | O=C(NC1(C(=O)O)C2CC3CC(C2)CC1C3)c1cnc(-c2cn(C3CCC(F)(F)CC3)c3cc(C(=O)N4CCN(c5ncc(F)cn5)CC4)ccc23)nc1C(F)(F)F (stereo not shown) [Compound I-433] | < 0.01
15 | O=C(NC1(C(=O)O)C2CC3CC(C2)CC1C3)c1cnc(N2CC3(CCOCC3)c3cc(Nc4ncccn4)ccc32)nc1C(F)(F)F (stereo not shown) [Compound I-435] | < 0.01
16 | O=C(NC1(C(=O)O)C2CC3CC(C2)CC1C3)c1cnc(N2CC3(CCOCC3)c3cc(Nc4ccc(C(F)(F)F)cn4)ccc32)nc1C(F)(F)F (stereo not shown) [Compound I-436] | < 0.01
17 | O=C(NC1(C(=O)O)C2CC3CC(C2)CC1C3)c1cnc(N2CC3(CCCCC3)c3c2ccc(OC2CCN(c4ncccn4)CC2)c3F)nc1C(F)(F)F (stereo not shown) [Compound I-439] | < 0.01
18 | CC(F)(F)c1nc(N2CC3(CCCCC3)c3cc(OC4CCN(CC(F)(F)F)CC4)ccc32)nc(C(C)(F)F)c1C(=O)NC1(C(=O)O)C2CC3CC(C2)CC1C3 (stereo not shown) [Compound I-441] | 0.01 to 0.1
19 | O=C(NC1(C(=O)O)C2CC3CC(C2)CC1C3)c1cnc(N2CC3(CCOCC3)c3cc(OCCC(F)(F)F)ccc32)nc1C(F)(F)F (stereo not shown) [Compound I-442] | < 0.01
20 | O=C(NC1(C(=O)O)C2CC3CC(C2)CC1C3)c1cnc(-c2cn(Cc3ccccc3)c3cc(OC4CCN(c5ncc(F)cn5)CC4)ccc23)nc1C(F)(F)F (stereo not shown) [Compound I-446] | < 0.01
21 | COc1ccc2c(c1)c(-c1ncc(C(=O)NC3(C(=O)O)C4CC5CC(C4)CC3C5)c(C(F)(F)F)n1)cn2C1CCC(F)(F)CC1 (stereo not shown) [Compound I-454] | 0.01 to 0.1
22 | O=C(NC1(C(=O)O)C2CC3CC(C2)CC1C3)c1cnc(N2CC3(CCCCC3)c3cc(O[C@H]4CC[C@H](ON=C5CCC(F)(F)CC5)CC4)ccc32)nc1C(F)(F)F (stereo partly shown) [Compound I-456] | 0.01 to 0.1
23 | O=C(NC1(C(=O)O)C2CC3CC(C2)CC1C3)c1cnc(N2CC3(CCCCC3)c3cc(O[C@H]4CC[C@@H](ON=C5CCC(F)(F)CC5)CC4)ccc32)nc1C(F)(F)F (stereo partly shown) [Compound I-457] | 0.01 to 0.1
24 | O=C(NC1(C(=O)O)C2CC3CC(C2)CC1C3)c1cnc(N2CC3(CCOCC3)c3cc(OCC(F)F)ccc32)nc1C(F)(F)F (stereo not shown) [Compound I-459] | < 0.01
25 | O=C(NC1(C(=O)O)C2CC3CC(C2)CC1C3)c1cnc(N2CC3(CCCCC3)c3cc(O[C@H]4CC[C@H](ON=C5CC(F)(F)C5)CC4)ccc32)nc1C(F)(F)F (stereo partly shown) [Compound I-460] | < 0.01
26 | O=C(NC1(C(=O)O)C2CC3CC(C2)CC1C3)c1cnc(N2CC3(CCCCC3)c3cc(O[C@H]4CC[C@@H](ON=C5CC(F)(F)C5)CC4)ccc32)nc1C(F)(F)F (stereo partly shown) [Compound I-461] | 0.01 to 0.1
27 | O=C(NC1(C(=O)O)C2CC3CC(C2)CC1C3)c1cnc(N2CC3(CCCC3)c3cc(O[C@H]4CC[C@H](N5CC(F)(F)C5)CC4)ccc32)nc1C(F)(F)F (stereo partly shown) [Compound I-462] | < 0.01
28 | O=C(NC1(C(=O)O)C2CC3CC(C2)CC1C3)c1cnc(-c2cn(-c3ncccn3)c3cc(OC4CCN(c5ncc(F)cn5)CC4)ccc23)nc1C(F)(F)F (stereo not shown) [Compound I-468] | < 0.01
29 | O=C(NC1(C(=O)O)C2CC3CC(C2)CC1C3)c1cnc(-c2cn(CCc3ccccc3)c3cc(OC4CCN(c5ncc(F)cn5)CC4)ccc23)nc1C(F)(F)F (stereo not shown) [Compound I-469] | < 0.01
30 | O=C(NC1(C(=O)O)C2CC3CC(C2)CC1C3)c1cnc(N2CC3(CCOCC3)c3cc(-n4ncc5cccnc54)ccc32)nc1C(F)(F)F (stereo not shown) [Compound I-471] | < 0.01

The next lines start with the values.

Row | EC50 [µM] | Structure (SMILES)
31 | < 0.01 | O=C(NC1(C(=O)O)C2CC3CC(C2)CC1C3)c1cnc(-c2cn(C3CCC(F)(F)CC3)c3cc(O[C@@H]4CCN(CC(F)(F)F)C4)ccc23)nc1C(F)(F)F (stereo partly shown) [Compound I-374]
32 | < 0.01 | O=C(NC1(C(=O)O)C2CC3CC(C2)CC1C3)c1cnc(-c2cn(C3CCC(F)(F)CC3)c3cc(O[C@H]4CCN(CC(F)(F)F)C4)ccc23)nc1C(F)(F)F (stereo partly shown) [Compound I-375]
33 | < 0.01 | O=C(NC1(C(=O)O)C2CC3CC(C2)CC1C3)c1cnc(-c2cn(C3CCC(F)(F)CC3)c3cc(OC4CN(CC(F)(F)F)C4)ccc23)nc1C(F)(F)F (stereo not shown) [Compound I-388]
34 | < 0.01 | CC1CN(CC(F)(F)F)CCC1Oc1ccc2c(-c3ncc(C(=O)NC4(C(=O)O)C5CC6CC(C5)CC4C6)c(C(F)(F)F)n3)cn(C3CCC(F)(F)CC3)c2c1 (stereo not shown) [Compound I-403]
35 | < 0.01 | O=C(NC1(C(=O)O)C2CC3CC(C2)CC1C3)c1cnc(-c2cn(C3CCC(F)(F)CC3)c3cc(OC4CCN(CC(F)(F)C(F)(F)F)CC4)ccc23)nc1C(F)(F)F (stereo not shown) [Compound I-408]
36 | < 0.01 | O=C(NC1(C(=O)O)C2CC3CC(C2)CC1C3)c1cnc(-c2cn(C3CCC(F)(F)CC3)c3cc(OC4CCN(CC(F)(F)C(F)F)CC4)ccc23)nc1C(F)(F)F (stereo not shown) [Compound I-409]
37 | < 0.01 | O=C(NC1(C(=O)O)C2CC3CC(C2)CC1C3)c1cnc(-c2cn(C3CCC(F)(F)CC3)c3cc(OC4CCN(c5cc(F)ccn5)CC4)ccc23)nc1C(F)(F)F (stereo not shown) [Compound I-411]
38 | < 0.01 | CC1CC(Oc2ccc3c(-c4ncc(C(=O)NC5(C(=O)O)C6CC7CC(C6)CC5C7)c(C(F)(F)F)n4)cn(C4CCC(F)(F)CC4)c3c2)CCN1CC(F)(F)F (stereo not shown) [Compound I-414]
39 | < 0.01 | O=C(NC1(C(=O)O)C2CC3CC(C2)CC1C3)c1cnc(-c2cn(C3CCC(F)(F)CC3)c3cc(OC4CCC(F)(F)CC4)ccc23)nc1C(F)(F)F (stereo not shown) [Compound I-419]
40 | < 0.01 | O=C(NC1(C(=O)O)C2CC3CC(C2)CC1C3)c1cnc(-c2cn(C3CCC(F)(F)CC3)c3cc(OC4CCN(c5ncc(F)s5)CC4)ccc23)nc1C(F)(F)F (stereo not shown) [Compound I-420]
41 | < 0.01 | O=C(NC1(C(=O)O)C2CC3CC(C2)CC1C3)c1cnc(-c2cn(C3CCC(F)(F)CC3)c3cc(OC4CCN(CC5(F)CC5)CC4)ccc23)nc1C(F)(F)F (stereo not shown) [Compound I-425]
42 | < 0.01 | O=C(NC1(C(=O)O)C2CC3CC(C2)CC1C3)c1cnc(-c2cn(C3CCC(F)(F)CC3)c3cc(OC4CCC(C(F)(F)F)CC4)ccc23)nc1C(F)(F)F (stereo not shown) [Compound I-428]
43 | < 0.01 | O=C(NC1(C(=O)O)C2CC3CC(C2)CC1C3)c1cnc(-c2cn(C3CCC(F)(F)CC3)c3cc(OC4CCN(c5ncc(F)cc5F)CC4)ccc23)nc1C(F)(F)F (stereo not shown) [Compound I-432]
44 | < 0.01 | CN(CC(F)(F)F)[C@H]1CC[C@@H](Oc2ccc3c(-c4ncc(C(=O)NC5(C(=O)O)C6CC7CC(C6)CC5C7)c(C(F)(F)F)n4)cn(C4CCC(F)(F)CC4)c3c2)CC1 (stereo partly shown) [Compound I-448]
45 | < 0.01 | CN(CC(F)(F)F)[C@H]1CC[C@H](Oc2ccc3c(-c4ncc(C(=O)NC5(C(=O)O)C6CC7CC(C6)CC5C7)c(C(F)(F)F)n4)cn(C4CCC(F)(F)CC4)c3c2)CC1 (stereo partly shown) [Compound I-450]
46 | 0.01 to 0.1 | COc1ccc2c(-c3ncc(C(=O)NC4(C(=O)O)C5CC6CC(C5)CC4C6)c(C(F)(F)F)n3)cn(C3CCC(F)(F)CC3)c2c1 (stereo not shown) [Compound I-455]
